The target in the assay is T1, Aurora A proteins (Homo sapiens, UniProt O14965).
T1 construct: endogenous in cells; host or cells: MM.1S
T1 sequence (O14965 1-403): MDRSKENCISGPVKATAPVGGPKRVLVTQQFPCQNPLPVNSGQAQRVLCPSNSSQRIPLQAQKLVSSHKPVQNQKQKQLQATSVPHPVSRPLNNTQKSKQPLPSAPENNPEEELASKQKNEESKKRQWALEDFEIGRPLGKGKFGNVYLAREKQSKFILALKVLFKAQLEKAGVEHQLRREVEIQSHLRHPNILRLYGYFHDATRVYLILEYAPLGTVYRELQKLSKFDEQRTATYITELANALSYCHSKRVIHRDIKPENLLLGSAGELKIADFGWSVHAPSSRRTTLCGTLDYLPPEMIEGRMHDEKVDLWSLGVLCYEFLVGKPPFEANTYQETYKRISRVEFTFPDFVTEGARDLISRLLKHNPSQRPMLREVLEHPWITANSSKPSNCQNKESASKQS
Briefly: Degradation of Aurora A protein in MM.1S cell lines (Western blot densitometry). The format is cell-based. Particulars: for Aurora A degradation (%) at 5 µM: MM1.S, read-out: Aurora A degrading capacity (%). The protocol: Specifically, the MM.1S cells were cultured in RPMI-1640 medium containing 10% fetal bovine serum (FBS), 1% penicillin, and streptomycin (100 U/mL), transferred to a 6-well plate, and after 24 hours, the Aurora A degraders were diluted in the RPMI culture medium and cells were treated with 5 μM concentration thereof. After treatment, the cells were incubated in a CO2 incubator for 24 hours. […] After cell culture was completed according to the experimental conditions, the cells were collected and centrifuged at 1,800 rpm for 3 minutes. The cells in the precipitate were lysed with RIPA (25 mM Tris-HCl pH 7.6, 150 mM NaCl, 1% NP-40, 1% sodium deoxycholate, 0.1% SDS, 1× Protease Inhibitor Cocktail), 5× sample buffer was added, and then heated at 100° C. for 15 minutes. The prepared sample was electrophoresed with sodium dodecyl sulfate poly acrylamide gel electrophoresis (SDS-PAGE), and then the proteins in the gel were transferred to a PVDF membrane using Trans-Blot Turbo. The membrane was treated with a 5% bovine serum albumin (BSA) solution and blocked at room temperature for 2 hours, and then Aurora A and R-actin antibodies were diluted in the 5% BSA solution to react with the membrane at 4° C. overnight. After washed with PBST (0.5% Tween20) 5 times, horse radish peroxidase (HRP)-conjugated secondary antibodies were diluted in PBST to react at room temperature for 2 hours, and then washed again with a PBST solution 5 times. After enzyme-substrate reaction was carried out using a HRP substrate, a signal was measured with chemi-doc equipment, and the densitometry of a band corresponding to the Aurora A protein detected in the Preparation Example Compounds was quantitatively analyzed. The case when the degrading capacity of each Aurora A degrader was reduced by less than 40% is indicated as +, the case when the degrading capacity was reduced by 40% to 70% (exclusive of 70) is indicated as ++, the case when the degrading capacity was reduced by 70% or more is indicated as +++ in Tables 20 to 23 below.

Counter-ions that a name gives are not always drawn. Like-named read-outs stand apart in the source and are kept apart here.

With `COC(=O)c1ccc(NC2CCC(NC(=O)c3ccc(Nc4ncc5c(n4)-c4ccc(Cl)cc4C(c4c(F)cccc4OC)=NC5)cc3OC)CC2)cc1C#CCN` (centres unmarked) [5-35″, methyl 2-(3-aminoprop-1-yn-1-yl)-4-((4-(4-((9-chloro-7-(2-fluoro-6-methoxyphenyl)-5H-benzo[c]pyrimido[4,5-e]azepin-2-yl)amino)-2-methoxybenzamido)cyclohexyl)amino)benzoate trifluoroacetic acid], under “24 h”, the Aurora A degradation (%) at 5 µM is more than 70%.
As to `COc1cc(Nc2ncc3c(n2)-c2ccc(Cl)cc2C(c2c(F)cccc2OC)=NC3)ccc1C(=O)Nc1ccc(C#CCN)cc1` [1-1″, N-(4-(3-aminoprop-1-yn-1-yl)phenyl)-4-((9-chloro-7-(2-fluoro-6-methoxyphenyl)-5H-benzo[c]pyrimido[4,5-e]azepin-2-yl)amino)-2-methoxybenzamide trifluoroacetic acid], the Aurora A degradation (%) at 5 µM (24 h) is more than 70%.
Take `COC(=O)c1ccc(NC(=O)C2CCN(C(=O)c3ccc(Nc4ncc5c(n4)-c4ccc(Cl)cc4C(c4c(F)cccc4OC)=NC5)cc3OC)CC2)cc1C#CCN` [5-23″, methyl 2-(3-aminoprop-1-yn-1-yl)-4-(1-(4-((9-chloro-7-(2-fluoro-6-methoxyphenyl)-5H-benzo[c]pyrimido[4,5-e]azepin-2-yl)amino)-2-methoxybenzoyl)piperidine-4-carboxamido)benzoate hydrochloride]: the Aurora A degradation (%) at 5 µM (MM.1S cells, 5 μM, 24 hours, Western blot) was less than 40%.
Regarding `COC(=O)c1ccc(NC(=O)CCCNC(=O)c2ccc(Nc3ncc4c(n3)-c3ccc(Cl)cc3C(c3c(F)cccc3OC)=NC4)cc2OC)cc1C#CCN` [4-228″, methyl 2-(3-aminoprop-1-yn-1-yl)-4-(4-(4-((9-chloro-7-(2-fluoro-6-methoxyphenyl)-5H-benzo[c]pyrimido[4,5-e]azepin-2-yl)amino)-2-methoxybenzamido)butanamido)benzoate trifluoroacetic acid], the Aurora A degradation (%) at 5 µM (24 h) fell in the range of 40 to 70%.
Still for that read-out and setting: in the case of `COc1cc(Nc2ncc3c(n2)-c2ccc(Cl)cc2C(c2c(F)cccc2OC)=NC3)ccc1C(=O)NCCCC(=O)Nc1ccc(-c2cnc(C(F)(F)F)nc2)c(C#CCN)c1` [5-81″, N-(4-((3-(3-aminoprop-1-yn-1-yl)-4-(2-(trifluoromethyl)pyrimidin-5-yl)phenyl)amino)-4-oxobutyl)-4-((9-chloro-7-(2-fluoro-6-methoxyphenyl)-5H-benzo[c]pyrimido[4,5-e]azepin-2-yl)amino)-2-methoxybenzamide trifluoroacetic acid] it was more than 70%.
For the compound `COC(=O)c1ccc(N2CCN(C(=O)CCNC(=O)c3ccc(Nc4ncc5c(n4)-c4ccc(Cl)cc4C(c4c(F)cccc4OC)=NC5)cc3OC)CC2)cc1C#CCN` [5-32″, methyl 2-(3-aminoprop-1-yn-1-yl)-4-(4-(3-(4-((9-chloro-7-(2-fluoro-6-methoxyphenyl)-5H-benzo[c]pyrimido[4,5-e]azepin-2-yl)amino)-2-methoxybenzamido)propanoyl)piperazin-1-yl)benzoate trifluoroacetic acid], the Aurora A degradation (%) at 5 µM (24 h) lay within 40 to 70%.
Same read-out and setting: in the case of `COc1cc(Nc2ncc3c(n2)-c2ccc(Cl)cc2C(c2c(F)cccc2OC)=NC3)ccc1C(=O)NCCCNC(=O)c1ccc(C#CCN)o1` [4-166″, 5-(3-aminoprop-1-yn-1-yl)-N-(3-(4-((9-chloro-7-(2-fluoro-6-methoxyphenyl)-5H-benzo[c]pyrimido[4,5-e]azepin-2-yl)amino)-2-methoxybenzamido)propyl)furan-2-carboxamide trifluoroacetic acid] it was less than 40%.
With `COc1cc(Nc2ncc3c(n2)-c2ccc(Cl)cc2C(c2c(F)cccc2OC)=NC3)ccc1C(=O)NCCCC(=O)Nc1ccc(C#CCN)c(CO)c1` [5-8″, N-(4-((4-(3-aminoprop-1-yn-1-yl)-3-(hydroxymethyl)phenyl)amino)-4-oxobutyl)-4-((9-chloro-7-(2-fluoro-6-methoxyphenyl)-5H-benzo[c]pyrimido[4,5-e]azepin-2-yl)amino)-2-methoxybenzamide trifluoroacetic acid], the Aurora A degradation (%) at 5 µM (24 h) is less than 40%.
Regarding `COc1cc(Nc2ncc3c(n2)-c2ccc(Cl)cc2C(c2c(F)cccc2OC)=NC3)ccc1C(=O)O` [Formula 2, reference compound], the “Aurora A degrading capacity” value (MM.1S cells, 5 μM, 24 hours, Western blot, control group) worked out at 0%.
In the case of `COC(=O)c1ccc(N2CC3(CN(C(=O)c4ccc(Nc5ncc6c(n5)-c5ccc(Cl)cc5C(c5c(F)cccc5OC)=NC6)cc4OC)C3)C2)cc1C#CCN` [5-40″, methyl 2-(3-aminoprop-1-yn-1-yl)-4-(6-(4-((9-chloro-7-(2-fluoro-6-methoxyphenyl)-5H-benzo[c]pyrimido[4,5-e]azepin-2-yl)amino)-2-methoxybenzoyl)-2,6-diazaspiro[3.3]heptan-2-yl)benzoate trifluoroacetic acid], the Aurora A degradation (%) at 5 µM (24 h) was more than 70%.
The same measure, in the same setting: with `COC(=O)c1ccc(NC(=O)c2ccc(Nc3ncc4c(n3)-c3ccc(Cl)cc3C(c3c(F)cccc3OC)=NC4)cc2OC)cc1C#CCN` [3-25″, methyl 2-(3-aminoprop-1-yn-1-yl)-4-(4-((9-chloro-7-(2-fluoro-6-methoxyphenyl)-5H-benzo[c]pyrimido[4,5-e]azepin-2-yl)amino)-2-methoxybenzamido)benzoate trifluoroacetic acid] the figure was less than 40%; with `COC(=O)c1ccc(N2CCN(CC3CCN(C(=O)c4ccc(Nc5ncc6c(n5)-c5ccc(Cl)cc5C(c5c(F)cccc5OC)=NC6)cc4OC)CC3)CC2)cc1C#CCN` [5-29″, methyl 2-(3-aminoprop-1-yn-1-yl)-4-(4-((1-(4-((9-chloro-7-(2-fluoro-6-methoxyphenyl)-5H-benzo[c]pyrimido[4,5-e]azepin-2-yl)amino)-2-methoxybenzoyl)piperidin-4-yl)methyl)piperazin-1-yl)benzoate trifluoroacetic acid], more than 70%; with `COc1cc(Nc2ncc3c(n2)-c2ccc(Cl)cc2C(c2c(F)cccc2OC)=NC3)ccc1C(=O)Nc1ccc(C#CC(N)CO)cc1` (centres unmarked) [3-49″, N-(4-(3-amino-4-hydroxybut-1-yn-1-yl)phenyl)-4-((9-chloro-7-(2-fluoro-6-methoxyphenyl)-5H-benzo[c]pyrimido[4,5-e]azepin-2-yl)amino)-2-methoxybenzamide trifluoroacetic acid], more than 70%.
On to `COC(=O)c1ccc(C#CCNC(=O)c2ccc(Nc3ncc4c(n3)-c3ccc(Cl)cc3C(c3c(F)cccc3OC)=NC4)cc2OC)cc1C#CCN` [5-116″, methyl 2-(3-aminoprop-1-yn-1-yl)-4-(3-(4-((9-chloro-7-(2-fluoro-6-methoxyphenyl)-5H-benzo[c]pyrimido[4,5-e]azepin-2-yl)amino)-2-methoxybenzamido)prop-1-yn-1-yl)benzoate trifluoroacetic acid], for which the Aurora A degradation (%) at 5 µM (24 h) was more than 70%.
As for `COc1cc(Nc2ncc3c(n2)-c2ccc(Cl)cc2C(c2c(F)cccc2OC)=NC3)ccc1C(=O)NCCCCCC(=O)Nc1ccc(C#CCN)cc1` [4-165″, N-(6-((4-(3-aminoprop-1-yn-1-yl)phenyl)amino)-6-oxohexyl)-4-((9-chloro-7-(2-fluoro-6-methoxyphenyl)-5H-benzo[c]pyrimido[4,5-e]azepin-2-yl)amino)-2-methoxybenzamide trifluoroacetic acid], the Aurora A degradation (%) at 5 µM (24 h) is more than 70%.
On the same count and under the same terms, in the case of `COc1cc(Nc2ncc3c(n2)-c2ccc(Cl)cc2C(c2c(F)cccc2OC)=NC3)ccc1C(=O)NCCCCCC(=O)Nc1cccc(C#CCN)c1` [5-104″, N-(6-((3-(3-aminoprop-1-yn-1-yl)phenyl)amino)-6-oxohexyl)-4-((9-chloro-7-(2-fluoro-6-methoxyphenyl)-5H-benzo[c]pyrimido[4,5-e]azepin-2-yl)amino)-2-methoxybenzamide trifluoroacetic acid] it was more than 70%.
Turning to `COc1cc(Nc2ncc3c(n2)-c2ccc(Cl)cc2C(c2c(F)cccc2OC)=NC3)ccc1C(=O)Nc1cccc(C#CCN)c1` [1-3″, N-(3-(3-aminoprop-1-yn-1-yl)phenyl)-4-((9-chloro-7-(2-fluoro-6-methoxyphenyl)-5H-benzo[c]pyrimido[4,5-e]azepin-2-yl)amino)-2-methoxybenzamide trifluoroacetic acid], the Aurora A degradation (%) at 5 µM (24 h) was more than 70%.
